Test results as given in paper PMC4977052, “On the Utility of ToxCast™ and ToxPi as Methods for Identifying New Obesogens” (Environmental Health Perspectives, 2016).
Read-outs that look alike come from different tables or passages of the source.

Columns and labels:
[1] = biological target: T1, GAL4-hRXRα (Homo sapiens, UniProt P19793); assay: GAL4-hRXRα activation, transient transfection luciferase reporter in COS7 cells; assay type: cell-based; settings: COS7, 100 μM through 0.137 μM
T1 construct: expressed in transfected cells; host or cells: COS7
T1 sequence (P19793 with tags, fused parts or gaps limits assumed): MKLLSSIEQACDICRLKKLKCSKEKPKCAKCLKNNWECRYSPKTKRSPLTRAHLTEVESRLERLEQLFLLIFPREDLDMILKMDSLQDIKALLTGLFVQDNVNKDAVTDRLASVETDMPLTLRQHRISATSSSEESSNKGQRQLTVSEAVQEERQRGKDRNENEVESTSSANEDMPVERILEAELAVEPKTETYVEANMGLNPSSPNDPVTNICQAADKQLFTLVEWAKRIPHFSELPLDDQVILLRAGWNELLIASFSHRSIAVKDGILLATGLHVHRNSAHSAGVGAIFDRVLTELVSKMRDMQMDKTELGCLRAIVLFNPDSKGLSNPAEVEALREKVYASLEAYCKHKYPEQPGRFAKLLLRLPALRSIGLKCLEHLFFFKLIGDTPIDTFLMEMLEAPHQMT
Description: (§1) pCMX-Gal4, pCMX-Gal4-mPPARγ, and pCMX-Gal4-hRXRα were previously described ([Grün et al. 2006]). Transient transfections were performed in COS7 cells as described ([Chamorro-García et al. 2012]). Briefly, COS7 cells were seeded at 15,000 cells per well in 96-well tissue culture plates in 10% calf bovine serum. The following day, cells were transfected in Opti-MEM at ~ 90% confluency. One microgram of CMX-GAL4 effector plasmid was co-transfected with 5 μg tk-(MH100)4-luciferase reporter and 5 μg of CMX-β-galactosidase transfection control plasmids in Opti-MEM® using Lipofectamine® 2000 reagent (Invitrogen™ Life Technologies, Carlsbad, CA, USA), following the manufacturer’s recommended protocol. All chemicals were solvated in dimethyl sulfoxide (DMSO). After overnight incubation, the medium was replaced with Dulbecco’s Modified Eagle Medium (DMEM; HyClone, Logan, UT, USA), 10% resin charcoal stripped fetal bovine serum (FBS) plus ligands at concentrations indicated in the figure legends for an additional 24 hr. DMSO concentration was maintained at 0.05% across all chemical treatments. Cells were lysed and assayed for luciferase and β-galactosidase activity as previously described ([Forman et al. 1995]). All transfections were performed in triplicate and reproduced in multiple experiments. Data are reported as fold induction or reduction over vehicle ([…]) controls ± SEM (standard error of the mean) using standard propagation of error ([Bevington and Robinson 2003]). […] The EC50, EC10, IC50, and IC10 values from NCGC and ToxCast™ are reported from gain AC50 and AC10 values in the ToxCast™ 2014 release ([Filer et al. 2014]).
(§2) Figure 4 ToxPi Chemical Activity on PPARγ and RXRα. The ability of a graded dose series of ToxPi chemicals to activate (A) GAL4-mPPARγ or (B) GAL4-hRXRα was tested in transiently transfected COS7 cells. (A, B) Data points are averages of triplicate transfections (three biological replicates). […] ToxPi chemicals were tested in 3-fold serial dilutions from 100 μM through 0.137 μM, with the final data point being 0.05% DMSO. Data are depicted as fold induction over vehicle (0.05% DMSO) controls ± SEM. (A) Rosiglitazone serves as a positive control activator for GAL4-mPPARγ. (B) LG100268 (2-[1-(3,5,5,8,8-Pentamethyl-5,6,7,8-tetrahydro-2-naphthyl)cyclopropyl]pyridine-5-carboxylic acid) serves as a positive control activator for GAL4-hRXRα. (C) EC50 and EC10 values calculated from A and B are reported and compared to other assays (see Figure S1). ATG, Attagene GAL-PPARγ or GAL-RXRα activation assay; NCGC, GeneBLAzer® GAL-PPARγ or GAL-RXRα activation assays. Triphenyltin was previously published ([Kanayama et al. 2005]).

[2] = biological target: T2, GAL4-mPPARγ (Mus musculus, UniProt P37238); assay: GAL4-mPPARγ activation, transient transfection luciferase reporter in COS7 cells; assay type: cell-based; settings: COS7, 100 μM through 0.137 μM
T2 construct: expressed in transfected cells; host or cells: COS7
T2 sequence (P37238 with tags, fused parts or gaps limits assumed): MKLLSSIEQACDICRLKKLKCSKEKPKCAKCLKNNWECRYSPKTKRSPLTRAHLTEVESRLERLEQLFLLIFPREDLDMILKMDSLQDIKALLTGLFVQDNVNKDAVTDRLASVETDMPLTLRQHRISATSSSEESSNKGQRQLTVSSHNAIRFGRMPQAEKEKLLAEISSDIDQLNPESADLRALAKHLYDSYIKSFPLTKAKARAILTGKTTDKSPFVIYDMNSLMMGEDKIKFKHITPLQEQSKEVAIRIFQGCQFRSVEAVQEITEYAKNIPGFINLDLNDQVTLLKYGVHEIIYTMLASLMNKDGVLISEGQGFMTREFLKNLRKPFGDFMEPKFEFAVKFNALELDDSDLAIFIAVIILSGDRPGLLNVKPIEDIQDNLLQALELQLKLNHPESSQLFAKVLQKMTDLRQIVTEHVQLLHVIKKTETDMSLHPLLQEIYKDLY
Description: as §1
(§3) Figure 1 ToxCast™ Chemical Activity on PPARγ. The ability of a graded dose series of ToxCast™ chemicals to (A) activate or (B) antagonize GAL4-mPPARγ was tested in transiently transfected COS7 cells. (A, B) Data points are averages of triplicate transfections (three biological replicates). […] Data are depicted as (A) fold induction or (B) reduction over vehicle (0.05% DMSO) controls ± SEM. (A) ToxCast™ chemicals were tested in 3-fold serial dilutions from 100 μM through 0.137 μM, with the final data point being 0.05% DMSO. Rosiglitazone serves as a positive control activator. (B) ToxCast™ chemicals were tested in 3-fold serial dilutions from 100 μM, in competition with 50 nM rosiglitazone (Rosi). […] (C) EC50, EC10, IC50, and IC10 values calculated from A and B are reported and compared to commercial assays (see Figure S1). Note: ATG, Attagene GAL-PPARγ activation assay; NCGC, GeneBLAzer® agonist (EC values) or antagonist (IC values) assays. Triphenyltin was previously published ([Kanayama et al. 2005]).
as §2

[3] = biological target: T2, GAL4-mPPARγ; assay: GAL4-mPPARγ antagonism in competition with 50 nM rosiglitazone, transiently transfected COS7 cells; assay type: cell-based
Description: as §1, §3

[4] = test system: COS7 cells; assay: Cytotoxicity in transfected COS7 cells measured as decreased β-galactosidase activity; settings: transfected COS7 cells, 24 hr
Description: as §1, §3

[5] = test system: 3T3-L1 preadipocytes; assay: 3T3-L1 adipogenesis assay (lipid accumulation, adipogenic gene expression); assay type: cell-based; settings: 0.02-20 μM, 5 days after MDI induction
Description: 3T3-L1 cells (ATCC) were maintained in high-glucose DMEM supplemented with 10% fetal bovine serum, 2 mM L-glutamine, 50 IU/mL penicillin, and 50 μg/mL streptomycin. A total of 2 × 10^4 cells per well were seeded in 12-well plates. After 48 hr, cells were exposed to the adipogenic cocktail MDI (500 μM isobutylmethylxanthine, 0.25 nM dexamethasone and 5 μg/mL insulin), 8 μg/mL biotin and 8 μg/mL pantothenate for 2 days. Induction media was removed and cells were exposed to test chemicals during 5 days, replacing the media every 2 days. Rosiglitazone (ROSI) and tributyltin (TBT) were used as positive controls at 100 nM and 50 nM final concentrations, respectively. All ToxCast™ chemicals were tested at 0.02, 0.2, 2, and 20 μM, and DMSO concentration was maintained at 0.1% across all treatments. If the chemical was toxic at 20 μM, we repeated the experiment at 10 μM.
Cells were either fixed in 3.7% formaldehyde in phosphate-buffered saline (PBS) for 30 min at room temperature (RT) for lipid quantitation, or homogenized in TriPure (Roche, Mannheim, Germany) for gene expression analysis. For lipid quantitation, fixed cells were washed twice with PBS and maintained in PBS overnight at 4°C to release residual phenol red. Background of cells were measured prior to staining. Cells were stained with 1 μg/mL Nile red (CAS No. 7385-67-3) (to detect lipid accumulation) and 1 μg/mL Hoechst 33342 (ThermoFisher Scientific) (to detect nuclei as a surrogate for cell number) in PBS for 15 min in the dark at RT and washed twice with PBS. […] Background values of Hoechst and Nile red were subtracted from the RFUs after staining and the ratio RFUNile Red:RFUHoechst was calculated. Data are represented as mean ± SEM. Total RNA was isolated using TriPure (Roche) as recommended by the manufacturer. Reverse transcription and quantitative real-time RT-PCR (QPCR) were performed using Transcriptor RT and SYBR® Green Master Mix (Roche). cDNA was quantitated in a LightCycler® 480 System (Roche Diagnostics, Basel, Switzerland) using primer sets listed in Table S4. Each primer set amplified a single band as determined by gel electrophoresis and melting curve analysis. QPCR data were analyzed using the 2^ΔΔCt method ([Livak and Schmittgen 2001]) relative to ribosomal protein 36b4, normalizing to 0.1% DMSO vehicle. Error bars represent the SEM from four to six biological replicates calculated using standard propagation of error ([Bevington and Robinson 2003]).

[6] = test system: PPARγ; settings: cited from earlier work
[7] = test system: Human PPARγ; settings: cited from earlier work
[8] = test system: PPARγ; set-up: method as in Filer et al. 2014; settings: ref Filer et al. 2014, cited from earlier work
[9] = test system: PPARγ; settings: ToxCast 2014 release, ref Filer et al. 2014, cited from earlier work

With `O=C(O)COc1ccc(Cl)cc1Cl` [2,4-D, 2,4-dichlorophenoxyacetic acid] the “Activation of RXRα” value [1] was “inactive”.
For `CCc1cccc(CC)c1N(COC)C(=O)CCl` [Alachlor], the “Activation of GAL4-PPARγ (text)” value [2] was “did not activate PPARγ”, the AC50 ([3]; Activation AC50 (PPARγ antagonists), Cos-7 transient transfection, competition with 50 nM rosiglitazone) was 4.48 µM and the “Antagonism of PPARγ” value ([3]; COS7, competition against 50 nM rosiglitazone) was “weak antagonists”. For the same compound, the IC50 ([3]; COS7, in competition with 50 nM rosiglitazone) was 4.48 µM, the “PPARγ antagonists: IC10, Fig 1B” value ([3]; COS7, in competition with 50 nM rosiglitazone, computed from IC50) was 0.78 µM and the “Activation COS7 (result in words): PPARγ antagonist” value ([3]; Cos-7 transient transfection, competition with 50 nM rosiglitazone) was “PPARγ antagonist”. For the same compound, the “Concentration at which cytotoxicity (decreased β-galactosidase activity) was observed” value [4] was 100 µM, the “Adipogenesis 3T3-L1 (result in words)” value [5] was “Negative” and the AC50 ([6]; PPARγ, NA = not active, ref Filer et al. 2014, read-out: ATG Agonist AC50, 2014 Release) was 2 µM. The AC50 ([6]; PPARγ, NA = not active, ref Knudsen et al. 2011, read-out: ATG Agonist AC50, 2011 Release) was 3.7 µM, the AC50 ([7]; PPARγ direct binding, NA = not active, ref Filer et al. 2014, read-out: NVS Agonist AC50, 2014 Release) was 24.9 µM and the AC50 ([7]; PPARγ direct binding, NA = not active, ref Knudsen et al. 2011, read-out: NVS Agonist AC50, 2011 Release) was 43 µM. For the same compound, the “PPARγ antagonists: IC10, NCGC” value ([8]; AC10, ToxCast 2014 release) was 0.15 µM, the AC50 ([8]; PPARγ, NA = not active, read-out: NCGC Antag. AC50, 2014 Release) was 3.2 µM and the IC50 ([8]; read-out: PPARγ antagonists: IC50, NCGC, gain AC50, ToxCast 2014 release) was 3.19 µM.
In the case of `CCNc1nc(Cl)nc(NC(C)C)n1` [Atrazine], the “Activation of GAL4-PPARγ (text)” value [2] is given as “inactive”, the “Activation of RXRα” value [1] is given as “inactive” and the AC50 ([6]; ToxCast 2014 release, ref Filer et al. 2014, read-out: Attagene AC50 (panel A, w/o Z-Score Correction ranking)) is given as 15.2 µM. For the same compound, the AC50 ([6]; ToxCast 2014 release, ref Filer et al. 2014, read-out: Attagene AC50 (panel B, with Z-Score Correction ranking)) was 15.2 µM, the AC50 ([7]; direct binding, ToxCast 2014 release, ref Filer et al. 2014, read-out: NovaScreen AC50 (panel A)) was 0.3 µM and the AC50 ([7]; direct binding, ToxCast 2014 release, ref Filer et al. 2014, read-out: NovaScreen AC50 (panel B)) was 0.3 µM. For the same compound, the AC50 ([9]; read-out: Tox21/NCGC AC50 (panel A)) was 200 nM and the AC50 ([9]; read-out: Tox21/NCGC AC50 (panel B)) was 200 nM.
